Data: the NIST ThermoML archive (doi:10.1016/j.jct.2010.05.002)
Numbers after ± are expanded uncertainties.

Assay: Molar enthalpy of transition or fusion
Conditions: Crystal; Adiabatic calorimetry

Molar enthalpy of transition or fusion [kcal/mol]	Structure (SMILES)
4.75 ± 0.163	CC(C)(C)c1ccc(-c2ccccc2)cc1 [4-(1,1-dimethylethyl)-1,1'-biphenyl]
2.94 ± 0.0669	Cc1ccc(-c2ccccc2)cc1 [4-methylbiphenyl]
